Measured values from patent US6362216B1, “Compounds which inhibit tryptase activity” (Array Biopharma Inc., priority 1998, dated 2002).

What was measured:
Assay type in all cases: biochemical
[1] = target: T1, Human lung tryptase; assay: Human lung tryptase inhibition, chromogenic GPR-pNA substrate
T1 construct: Human lung tryptase purchased from Cortex Biochem (San Leandro, Calif.) was purified further on a Superdex 200 gel-filtration column
Experimental: (§1) Protease inhibition was assayed according to published procedures with minor modifications using various proteases and specific chromogenic peptide p-nitroanilide substrates. Assays were performed in Costar ultra-low cluster 96-well microtiter plate (Costar Corning Corp., Cambridge Mass.). Each protease was incubated with various concentrations of the test compound for 15 min. at 37° C. or as otherwise indicated, in specific assay buffer, and the residual activity was then measured by addition of the substrate. p-Nitroaniline produced by the proteolysis was determined by measuring the change in absorbance at 405 nm on a SpectraMAX 340 plate reader (Molecular devices, Sunnyvale, Calif.).
(§2) 1. The inhibition constant, Ki is calculated from individual data points using the equation for a tight-binding inhibitor (See Beith, “Proteinase Inhibitors-Proceedings of 2nd Int. Res. Conference”, Fritz, et al. eds., New York, p.4463-4469 (1974)):
vi/vo=[((Ki′+[I]+[E]o)^2−4[I]o[E]o)^½(Ki′+[I]o−[E]o)]/2[E]o
where Ki′ is apparent inhibition constant; vi and vo are the inhibited and uninhibited rates, respectively; [I]o and [E]o are the total concentrations of inhibitor and enzyme, respectively.
[note: [E]o is determined by active site titration of enzyme]
(§3) The Ki values are obtained by correcting Ki ′ values for the effect of substrate concentration according to: [formula]
(§4) 2. Other inhibition data (Ki>>[E]o), the Ki is calculated from using the equations for a competitive inhibitor: [formula]
IC50 is determined by fitting the individual inhibition data point to Sigmoid or four-parameter curve-fit equations.
Human lung tryptase purchased from Cortex Biochem (San Leandro, Calif.) was purified further on a Superdex 200 gel-filtration column. The active-site concentration of the enzyme was determined by spectrophotometric titration with 4-nitrophenyl 4′-guanidinobenzoate according to Schwartz, et al., J. Immunol., 114, 2304-2311 (1990). Tryptase activity was measured according to the procedures of Schwartz, et al., J. Biol. Chem., 261, 7372-7379 (1986) (See also, Schwartz, L. B., Methods In Enzymology, 244, 88 (1994)) with minor modifications, using Tosyl-Gly-Pro-Arg-p-nitroanilide (“GPR-pNA”, Sigma Chemical Co., St. Louis, Mo., T-1637) as a chromogenic substrate. The reaction was performed in 50 mM Tris-HCl, pH 8.0, containing 150 mM NaCl and 0.02% Triton X-100 at 37° C. in Costar ultra-low cluster 96-well microtiter plates (Costar Corning Corp., Cambridge, Mass.). The amount of pNA produced by tryptase was determined by measuring the change in absorbance at 405 nm on a SpectraMAX 340 plate reader (Molecular devices, Sunnyvale, Calif.). The Km for the substrate was determined by Lineweaver-Burk analysis from initial velocities of substrate hydrolysis. The inhibition assay was carried out in a total volume of 200 μL. Tryptase (30 μL-final concentration 1 nM) was incubated with various concentrations of sample compound (50 μL) to be tested in the above assay buffer for 5 min. The reaction was started by the addition of substrate GPR-pNA (40 μL-final concentration 320 μM), and the residual activity was measured after 15 min. of incubation. The inhibition constant, Ki, was determined by fitting the inhibition data to a two-site competitive binding equation using data analysis program GraphPad PRISM (GraphPad Software, Inc., San Diego, Calif.).
(§5) The inhibition constant (Ki) of the test compounds against each proteolytic enzyme was determined according to Zitnik et al., Biochem. Biophys. Res. Commun. 232, 687-697 (1997)).

[2] = target: T2, Human plasma thrombin (Homo sapiens, UniProt P00734); assay: Human plasma thrombin inhibition, H-D-Phe-Pip-Arg-pNA substrate
T2 construct: from tissue; host or cells: human plasma
Experimental: as §1, §2, §3, §4
Human plasma thrombin activity was determined by using H-D-Phe-Pip-Arg-pNA in 50 mM Tris-HCl, pH 8.3, 100 mM NaCl, 1% BSA (See Lottenberg, et al., Meth. Enzymol. 80, 341-361 (1981)).
as §5

[3] = target: T3, Bovine pancreatic Trypsin (TPCK-treated) (Bos taurus, UniProt P00760); assay: Bovine pancreatic trypsin inhibition, N-α-Benzoyl-L-Arg-pNA substrate
T3 construct: from tissue; host or cells: bovine pancreas
T3 sequence (P00760 24-246): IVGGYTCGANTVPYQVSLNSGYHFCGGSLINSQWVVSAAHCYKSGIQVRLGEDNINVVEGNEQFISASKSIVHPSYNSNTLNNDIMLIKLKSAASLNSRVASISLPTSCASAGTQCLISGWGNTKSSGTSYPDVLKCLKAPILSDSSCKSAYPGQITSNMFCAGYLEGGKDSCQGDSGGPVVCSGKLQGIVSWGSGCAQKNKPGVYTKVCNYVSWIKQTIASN
Experimental: as §1, §2, §3, §4
C. Bovine Pancreatic Trypsin
Bovine pancreatic Trypsin (TPCK-treated) activity was determined by using N-α-Benzoyl-L-Arg-pNA in 50 mM Tris-HCl, pH 8.2, 20 mM CaCl2 (See Somorin, et al., J. Biochem. 85, 157-162 (1979)).
as §5

[4] = tryptase 1 nM, GPR-pNA 320 μM, 50 mM Tris-HCl pH 8.0, 37° C.
[5] = 50 mM Tris-HCl, pH 8.3, 100 mM NaCl, 1% BSA
[6] = 50 mM Tris-HCl, pH 8.2, 20 mM CaCl2

Row | Structure (SMILES) | Ki [1, 4] | Ki [2, 5] | Ki [3, 6] | also measured
1 | N=C(N)c1ccc2sc(C(=O)Nc3cccc(N)c3)cc2c1 | 0.52 µM | > 100 µM | 14 µM | –
2 | N=C(N)c1ccc2sc(C(=O)NCc3cccc(N)c3)cc2c1 | 0.22 µM | > 100 µM | 9.1 µM | –
3 | N=C(N)c1ccc2sc(CC(=O)NCc3cccc(N)c3)cc2c1 | 0.09 µM | > 100 µM | 6.4 µM | –
4 | N=C(N)c1ccc2cc(C(=O)Nc3cccc(N)c3)ccc2c1 | 0.055 µM | > 100 µM | 0.43 µM | –
5 | N=C(N)c1ccc2cc(C(=O)NCc3cccc(N)c3)ccc2c1 | 0.08 µM | > 100 µM | 1.3 µM | –
6 | N=C(N)c1ccc2cc(CC(=O)Nc3cccc(N)c3)ccc2c1 | 1.2 µM | > 100 µM | 2.1 µM | –
7 | N=C(N)c1ccc2sc(C(=O)NCCc3ccc(N)cc3)cc2c1 | 0.17 µM | > 100 µM | 8.3 µM | –
8 | N=C(N)c1ccc2sc(C(=O)NCc3ccc(N)cc3)cc2c1 | 0.44 µM | > 100 µM | 8.8 µM | –
9 | N=C(N)c1ccc2cc(C(=O)NCc3ccc(N)cc3)ccc2c1 | 0.21 µM | > 100 µM | 0.59 µM | –
10 | N=C(N)c1ccc2cc(C(=O)NCCc3ccc(N)cc3)ccc2c1 | 0.16 µM | > 100 µM | 0.95 µM | –
11 | N#Cc1ccc2[nH]c(Cc3nc4cc(C(=N)N)ccc4[nH]3)nc2c1 | 0.1 µM | – | – | –
12 | N=C(N)c1ccc2[nH]c(CC(=O)Nc3ccc4ccccc4c3)nc2c1 [2-Napthyl] | 5.2 µM | – | – | –
13 | N=C(N)c1ccc2[nH]c(CC(=O)Nc3ccccn3)nc2c1 [2-Pyridyl] | 1.2 µM | – | – | –
14 | N=C(N)c1ccc2[nH]c(CC(=O)NC3CCN(Cc4ccccc4)CC3)nc2c1 [4-Piperidinyl(N-benzyl)] | 1.7 µM | – | – | –
15 | N=C(N)c1ccc2[nH]c(CC(=O)Nc3ccc4[nH]ccc4c3)nc2c1 [5-Indole] | 0.81 µM | > 100 µM | 21.8 µM | –
16 | N=C(N)c1ccc2[nH]c(CC(=O)Nc3ccc4ncccc4c3)nc2c1 [6-Quinoline] | 0.34 µM | > 100 µM | 4.6 µM | –
17 | N=C(N)c1cccc(NC(=O)Cc2nc3cc(C(=N)N)ccc3[nH]2)c1 [(3-Amidino)Ph] | 0.52 µM | > 100 µM | 2.2 µM | –
18 | N=C(N)c1ccc2[nH]c(CC(=O)Nc3cccc(N)c3)nc2c1 [(3-Amino)Ph] | 0.29 µM | > 100 µM | 14.2 µM | –
19 | CS(=O)(=O)Nc1cccc(NC(=O)Cc2nc3cc(C(=N)N)ccc3[nH]2)c1 [(3-N(H)SO2CH3)Ph] | 7.7 µM | – | – | –
20 | N=C(N)c1ccc2[nH]c(CC(=O)Nc3cccc(O)c3)nc2c1 [(3-OH)Ph] | 0.57 µM | > 100 µM | 8.7 µM | –

Row | Structure (SMILES) | Ki [1, 4] | Ki [2, 5] | Ki [3, 6] | also measured
21 | N=C(N)c1ccc(NC(=O)Cc2nc3cc(C(=N)N)ccc3[nH]2)cc1 [(4-Amidino)Ph] | 0.97 µM | > 100 µM | 1.7 µM | –
22 | CC(=O)Nc1ccc(NC(=O)Cc2nc3cc(C(=N)N)ccc3[nH]2)cc1 [(4-N(H)COCH3)Ph] | 6.4 µM | – | – | –
23 | CS(=O)(=O)Nc1ccc(NC(=O)Cc2nc3cc(C(=N)N)ccc3[nH]2)cc1 [(4-N(H)SO2CH3)Ph] | 3.9 µM | – | – | –
24 | N=C(N)c1ccc2[nH]c(CC(=O)Nc3ccc(S(N)(=O)=O)cc3)nc2c1 [(4-SO2NH2)Ph] | 2.2 µM | – | – | –
25 | N=C(N)c1ccc2[nH]c(CC(=O)NCc3ccncc3)nc2c1 [CH2(4-Pyridyl)] | 4.7 µM | – | – | –
26 | N=C(N)c1ccc2[nH]c(CC(=O)NCCc3ccncc3)nc2c1 [CH2CH2(4-Pyridyl)] | 1.3 µM | – | – | –
27 | CCCNC(=O)Cc1nc2cc(C(=N)N)ccc2[nH]1 [CH2CH2CH3] | 9.6 µM | – | – | –
28 | CCNC(=O)Cc1nc2cc(C(=N)N)ccc2[nH]1 [CH2CH3] | 7.4 µM | – | – | –
29 | N=C(N)c1ccc2[nH]c(CC(=O)NCc3cccc(N)c3)nc2c1 [CH2Ph(3-Amino)] | 0.49 µM | > 100 µM | 7.5 µM | –
30 | N=C(N)c1ccc2[nH]c(CC(=O)NCc3ccc(CN)cc3)nc2c1 [CH2Ph(4-CH2NH2)] | 2.5 µM | – | – | –
31 | CNC(=O)Cc1nc2cc(C(=N)N)ccc2[nH]1 [CH3] | 42.8 µM | – | – | –
32 | N=C(N)c1ccc2[nH]c(CC(=O)NC3CCCCC3)nc2c1 [Cyclohexyl] | 36.9 µM | – | – | –
33 | N=C(N)c1ccc2[nH]c(CC(N)=O)nc2c1 [H] | 31.4 µM | – | – | –
34 | N=C(N)c1ccc2[nH]c(CC(=O)Nc3ccccc3)nc2c1 [X = H n = 0] | 9.5 µM | – | – | –
35 | N=C(N)c1ccc2[nH]c(CC(=O)NCc3ccccc3)nc2c1 [X = H n = 1] | 21.8 µM | – | – | –
36 | N=C(N)c1ccc2[nH]c(CC(=O)NCCc3ccccc3)nc2c1 [X = H n = 2] | 5.5 µM | – | – | –
37 | N=C(N)c1ccc2[nH]c(CC(=O)Nc3cccc(N)c3)cc2c1 [drawing 14 Indole 5-carboxamidine n=1 m=0] | 0.39 µM | > 100 µM | 4 µM | –
38 | N=C(N)c1ccc2[nH]c(CC(=O)Nc3ccc(N)cc3)cc2c1 [drawing 15 Indole 5-carboxamidine n=1 m=0] | 0.2 µM | > 100 µM | 3.8 µM | –
39 | N=C(N)c1ccc2[nH]c(CC(=O)NCc3ccc(N)cc3)cc2c1 [drawing 15 Indole 5-carboxamidine n=1 m=1] | 0.44 µM | 65 µM | 3.4 µM | –
40 | Cc1cc2cc(CNC(=O)Cc3ccc4cc(C(=N)N)ccc4c3)ccc2[nH]1 [drawing 17 Naphthalene 2,6-substitution n=1] | – | – | – | Ki ([1]; the 5th table, unit inferred): 0.01 µM; Ki ([2]; the 5th table, unit inferred): > 100 µM; Ki ([3]; the 5th table, unit inferred): 0.34 µM
